According to patent publication US9561231B2 (AbbVie Inc., priority 2012, dated 2017):

Assays:
[1] = system: breast cancer cell line MX-1; assay: MX-1 cell line proliferation assay (3-day); format: cell-based; conditions: Homo sapiens, MX1; MX-1 cells, 72 h incubation, Cell Titer Glo; read-out: Cellular proliferation: EC50
Description: The impact of compounds of the Examples on cancer cell proliferation was determined using the breast cancer cell line MX-1 (ATCC) in a 3-day proliferation assay. MX-1 cells were maintained in RPMI supplemented with 10% FBS at 37° C. and an atmosphere of 5% CO2. For compound testing, MX-1 cells were plated in 96-well black bottom plates at a density of 5000 cells/well in 90 μL of culture media and incubated at 37° overnight to allow cell adhesion and spreading. Compound dilution series were prepared in DMSO via a 3-fold serial dilution from 3 mM to 0.1 μM. The DMSO dilution series were then diluted 1:100 in phosphate buffered saline, and 10 μL of the resulted solution were added to the appropriate wells of the MX-1 cell plate. The final compound concentrations in the wells were 3, 1, 0.3, 0.1, 0.03, 0.01, 0.003, 0.001, 0.0003 and 0.0001 μM.
Luminescence readings from the Cell Titer Glo assay were normalized to the DMSO treated cells and analyzed using the GraphPad Prism software with sigmoidal curve fitting to obtain EC50s.

[2] = target: T1, second (BD2: amino acids E352-E168) bromodomain of BRD4 (Homo sapiens, UniProt O60885); assay: TR-FRET bromodomain binding assay, BRD4 BD2; conditions: TR-FRET assay protocol (A-G, compound concentration range); Ki calculated from IC50, probe Kd and probe concentration; read-out: TR-FRET Binding Ki: BRD4 (BDII_E352-M457)
T1 construct: protocol
Summary of the method: (§1)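 Displacement of Alexa647-labeled BET-inhibitor probe from His-tagged bromodomain, TR-FRET read-out; buffer 20 mM Na phosphate pH 6.0, 50 mM NaCl, 0.01% Triton X-100. IC50 by 4PL fit; Ki calculated from IC50, probe Kd and probe concentration.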

[3] = target: T2, first (BD1: amino acids K57-E168) bromodomain of BRD4 (Homo sapiens, UniProt O60885); assay: TR-FRET bromodomain binding assay, BRD4 BD1; conditions: TR-FRET assay protocol (A-G, compound concentration range); Ki calculated from IC50, probe Kd and probe concentration; read-out: TR-FRET Binding Ki: BRD4 (BDI_K57-E168)
T2 construct: His-tagged first (BD1: amino acids K57-E168)
Summary of the method: as §1

Row | SMILES | EC50 [1] [µM] | Ki [2] [µM] | Ki [3] [µM]
1 | CC(=O)NCc1ccc(Oc2ccccc2)c(-c2ccc(=O)n(C)n2)c1 [Example 16, N-[3-(1-methyl-6-oxo-1,6-dihydropyridazin-3-yl)-4-phenoxybenzyl]acetamide] | 5.9 | 8.42 | 1.11
2 | Cn1nc(-c2cc(CNC(=O)C(F)(F)F)ccc2Oc2ccccc2)ccc1=O [Example 17, 2,2,2-trifluoro-N-[3-(1-methyl-6-oxo-1,6-dihydropyridazin-3-yl)-4-phenoxybenzyl]acetamide] | 2.63 | 4.52 | 0.513
3 | COc1cc(=O)n(C)nc1-c1cc(N)ccc1Oc1ccccc1 [Example 20, 6-(5-amino-2-phenoxyphenyl)-5-methoxy-2-methylpyridazin-3(2H)-one] | 7.16 | 0.524 | 2.7
4 | COc1cc(=O)n(C)nc1-c1cc(N(C)S(C)(=O)=O)ccc1Oc1ccccc1 [Example 23, N-[3-(4-methoxy-1-methyl-6-oxo-1,6-dihydropyridazin-3-yl)-4-phenoxyphenyl]-N-methylmethanesulfonamide] | 3.8 | 0.214 | 0.48
5 | COc1cc(=O)n(C)nc1-c1cc(NS(=O)(=O)CCC(F)(F)F)ccc1Oc1ccccc1 [Example 28, 3,3,3-trifluoro-N-[3-(4-methoxy-1-methyl-6-oxo-1,6-dihydropyridazin-3-yl)-4-phenoxyphenyl]propane-1-sulfonamide] | 7.62 | 0.227 | 0.71
6 | CCOC(=O)Nc1ccc(Oc2ccccc2)c(-c2nn(C)c(=O)cc2OC)c1 [Example 29, ethyl[3-(4-methoxy-1-methyl-6-oxo-1,6-dihydropyridazin-3-yl)-4-phenoxyphenyl]carbamate] | 4.53 | 0.95 | 1.37
7 | CCNC(=O)Nc1ccc(Oc2ccccc2)c(-c2nn(C)c(=O)cc2OC)c1 [Example 30, 1-ethyl-3-[3-(4-methoxy-1-methyl-6-oxo-1,6-dihydropyridazin-3-yl)-4-phenoxyphenyl]urea] | 12.9 | 1.33 | > 2.38
8 | COc1cc(=O)n(C)nc1-c1ccccc1Oc1ccc(F)cc1 [Example 33, 6-[2-(4-fluorophenoxy)phenyl]-5-methoxy-2-methylpyridazin-3(2H)-one] | 4.1 | 2.29 | 3
9 | COc1cc(=O)n(C)nc1-c1ccccc1Oc1ccc(Cl)cc1 [Example 37, 6-[2-(4-chlorophenoxy)phenyl]-5-methoxy-2-methylpyridazin-3(2H)-one] | 10 | 1.79 | 1.73
10 | CCOC(=O)C1CCN(c2cc(=O)n(C)nc2-c2ccccc2Oc2ccccc2)C1 (stereo not drawn) [Example 49, ethyl 1-[1-methyl-6-oxo-3-(2-phenoxyphenyl)-1,6-dihydropyridazin-4-yl]pyrrolidine-3-carboxylate] | 7.11 | 0.748 | 6.68
11 | COC(=O)CNc1cc(=O)n(C)nc1-c1ccccc1Oc1ccccc1 [Example 50, methyl N-[1-methyl-6-oxo-3-(2-phenoxyphenyl)-1,6-dihydropyridazin-4-yl]glycinate] | 9.52 | 2.42 | 2.1
12 | Cn1nc(-c2ccccc2Oc2ccccc2)c(-c2ccnc(F)c2)cc1=O [Example 54, 5-(2-fluoropyridin-4-yl)-2-methyl-6-(2-phenoxyphenyl)pyridazin-3(2H)-one] | 4.24 | 0.356 | 4.12
13 | Cn1nc(-c2ccccc2Oc2ccccc2)c(-c2cc[nH]c(=O)c2)cc1=O [Example 55, 2-methyl-5-(2-oxo-1,2-dihydropyridin-4-yl)-6-(2-phenoxyphenyl)pyridazin-3(2H)-one] | 13.7 | 0.778 | 6.89
14 | Cn1ccc(-c2cc(=O)n(C)nc2-c2ccccc2Oc2ccccc2)cc1=O [Example 56, 2-methyl-5-(1-methyl-2-oxo-1,2-dihydropyridin-4-yl)-6-(2-phenoxyphenyl)pyridazin-3(2H)-one] | 10.4 | 0.341 | 2.9
15 | COc1cc(-c2cc(=O)n(C)nc2-c2ccccc2Oc2ccccc2)ccn1 [Example 57, 5-(2-methoxypyridin-4-yl)-2-methyl-6-(2-phenoxyphenyl)pyridazin-3(2H)-one] | 1.86 | 0.25 | 0.598
16 | CCOC(=O)c1cccc(-c2cc(=O)n(C)nc2-c2ccccc2Oc2ccccc2)c1 [Example 59, ethyl 3-[1-methyl-6-oxo-3-(2-phenoxyphenyl)-1,6-dihydropyridazin-4-yl]benzoate] | > 30 | 2.11 | 9.79
17 | CN1CCN(Cc2cccc(-c3cc(=O)n(C)nc3-c3ccccc3Oc3ccccc3)c2)CC1 [Example 60, 2-methyl-5-{3-[(4-methylpiperazin-1-yl)methyl]phenyl}-6-(2-phenoxyphenyl)pyridazin-3(2H)-one] | > 3 | 0.413 | 0.17
18 | Cn1nc(-c2ccccc2Oc2ccccc2)c(-c2ccc(CN3CCOCC3)cc2)cc1=O [Example 66, 2-methyl-5-[4-(morpholin-4-ylmethyl)phenyl]-6-(2-phenoxyphenyl)pyridazin-3(2H)-one] | 2.48 | 0.159 | 0.141
19 | Cn1nc(-c2ccccc2Oc2ccccc2)c(-c2ccc(CN3CCCCC3)cc2)cc1=O [Example 67, 2-methyl-6-(2-phenoxyphenyl)-5-[4-(piperidin-1-ylmethyl)phenyl]pyridazin-3(2H)-one] | 1.73 | 0.0925 | 0.0708

Stronger by EC50 [1], values ahead:

Row | EC50 [1] [µM] | Ki [2] [µM] | Ki [3] [µM] | SMILES
20 | 1.34 | 0.103 | 0.147 | COc1cc(=O)n(C)nc1-c1cc(NC(C)=O)ccc1Oc1ccccc1 [Example 21, N-[3-(4-methoxy-1-methyl-6-oxo-1,6-dihydropyridazin-3-yl)-4-phenoxyphenyl]acetamide]
21 | 1.01 | 0.108 | 0.326 | CCCS(=O)(=O)Nc1ccc(Oc2ccccc2)c(-c2nn(C)c(=O)cc2OC)c1 [Example 24, N-[3-(4-methoxy-1-methyl-6-oxo-1,6-dihydropyridazin-3-yl)-4-phenoxyphenyl]propane-1-sulfonamide]
22 | 0.911 | 0.0489 | 0.0331 | CN1CCN(Cc2ccc(-c3cc(=O)n(C)nc3-c3ccccc3Oc3ccccc3)cc2)CC1 [Example 61, 2-methyl-5-{4-[(4-methylpiperazin-1-yl)methyl]phenyl}-6-(2-phenoxyphenyl)pyridazin-3(2H)-one]
23 | 0.8 | 0.104 | 0.569 | COc1cc(=O)n(C)nc1-c1cc(NS(=O)(=O)C2CCCC2)ccc1Oc1ccccc1 [Example 26, N-[3-(4-methoxy-1-methyl-6-oxo-1,6-dihydropyridazin-3-yl)-4-phenoxyphenyl]cyclopentanesulfonamide]
24 | 0.739 | 0.0239 | 0.0852 | Cc1ccc(-c2cc(=O)n(C)nc2-c2cc(NS(C)(=O)=O)ccc2Oc2ccccc2)cc1 [Example 63, N-{3-[1-methyl-4-(4-methylphenyl)-6-oxo-1,6-dihydropyridazin-3-yl]-4-phenoxyphenyl}methanesulfonamide]
25 | 0.72 | 0.0789 | 0.296 | COc1cc(=O)n(C)nc1-c1cc(NS(=O)(=O)Cc2ccccc2)ccc1Oc1ccccc1 [Example 27, N-[3-(4-methoxy-1-methyl-6-oxo-1,6-dihydropyridazin-3-yl)-4-phenoxyphenyl]-1-phenylmethanesulfonamide]
26 | 0.45 | 0.0125 | 0.0974 | COc1cc(=O)n(C)nc1-c1cc(NS(=O)(=O)CC(F)(F)F)ccc1Oc1ccccc1 [Example 25, 2,2,2-trifluoro-N-[3-(4-methoxy-1-methyl-6-oxo-1,6-dihydropyridazin-3-yl)-4-phenoxyphenyl]ethanesulfonamide]
27 | 0.444 | 0.0635 | 0.264 | COc1cc(-c2cc(=O)n(C)nc2-c2cc(NS(C)(=O)=O)ccc2Oc2ccccc2)ccn1 [Example 58, N-{3-[4-(2-methoxypyridin-4-yl)-1-methyl-6-oxo-1,6-dihydropyridazin-3-yl]-4-phenoxyphenyl}methanesulfonamide]
28 | 0.281 | 0.00513 | 0.00749 | CN1CCN(Cc2ccc(-c3cc(=O)n(C)nc3-c3cc(NS(C)(=O)=O)ccc3Oc3ccccc3)cc2)CC1 [Example 62, N-[3-(1-methyl-4-{4-[(4-methylpiperazin-1-yl)methyl]phenyl}-6-oxo-1,6-dihydropyridazin-3-yl)-4-phenoxyphenyl]methanesulfonamide]
